Patent US20110091570A1, “Compositions and Devices for Antisepsis and Anticoagulation” (priority 2008, published 2011)
Where “and” joins values, the source holds several entries; their conditions need not be identical. Equal entries are not always repeated.

Key:
infected injuries = settings: applied intravenously [Ref. 1]; cited from earlier work
citrate blood [1] = test: International normalized ratio (INR); type: biochemical, human; settings: Example 7, 0.25 IE heparin
Experimental: (§1) Whole blood was taken from 11 volunteers and enriched with trisodium citrate (0.3 mL of a 0.106 molar solution per 3 mL whole blood) (S-Monovette®, Sarstedt, Nümbrecht, Germany). Commercial coagulation tests (as described in Example 6) were performed with the following samples: […]

citrate blood [2] = test: Activated partial thromboplastin time (aPTT), Pathromtin SL test; type: biochemical, human
Experimental: (§2) Whole blood was taken from volunteers and enriched with trisodium citrate (0.3 mL of a 0.106 molar solution per 3 mL whole blood) (S-Monovette®, Sarstedt, Nümbrecht, Germany). Routine coagulation tests were performed on the following samples:
(§3) The following commercial coagulation tests were performed according to the prescription of the manufacturer: prothrombin time (PT) was determined using Thromborel® S test (Dade Behring GmbH, Marburg, Germany); activated partial thromboplastin time (aPTT) was determined using Pathromtin* SL test (Dade Behring GmbH, Marburg, Germany); and thrombin time (TT) was determined using BC Thrombin Reagent test (Dade Behring GmbH, Marburg, Germany).
(§4) Whole blood was taken from a single volunteer and enriched with trisodium citrate (0.3 mL of a 0.106 molar solution per 3 mL whole blood) (S-Monovette®, Sarstedt, Nümbrecht, Germany). Portions of 1.8 mL citrate blood were mixed with 0.2 mL NCT in 0.9% saline. The following final (after dilution in blood) NCT concentrations were tested separately: 1% (55 mM); 0.5% (27.5 mM); 0.25% (13.75 mM); 0.1% (5.5 mM); 0.05% (2.75 mM); 0.025% (1.375 mM); and 0.01% (0.55 mM). A control without NCT was performed in parallel. The following commercial coagulation tests were performed according to the prescription of the manufacturer: prothrombin time (PT) was determined using Thromborel® S test (Dade Behring GmbH, Marburg, Germany), activated partial thromboplastin time (aPTT) was determined using Pathromtin* SL test (Dade Behring GmbH, Marburg, Germany); thrombin time (TT) was determined using BC Thrombin Reagent test (Dade Behring GmbH, Marburg, Germany); and fibrinogen was determined using Multifibren* U test (Dade Behring GmbH, Marburg, Germany).
as §1

Antithrombin III = Antithrombin III in citrate blood; type: biochemical, human; settings: Example 7, 0.25 IE heparin
Experimental: as §1

D-Dimer = D-Dimer in citrate blood; type: biochemical, human; settings: Example 7, 0.25 IE heparin
Experimental: as §1

citrate blood [3] = test: Thrombin time (TT), BC Thrombin Reagent test; type: biochemical, human; settings: Example 7, 0.25 IE heparin
Experimental: as §2, §3, §4, §1

Fibrinogen = target: T1, Fibrinogen (Homo sapiens, UniProt P02671+P02675+P02679); test: Fibrinogen, Multifibren U test; type: biochemical; settings: Example 7, 0.25 IE heparin
T1 construct: from tissue; host or cells: citrated whole blood of volunteers
T1 sequence (P02671 20-629 limits assumed): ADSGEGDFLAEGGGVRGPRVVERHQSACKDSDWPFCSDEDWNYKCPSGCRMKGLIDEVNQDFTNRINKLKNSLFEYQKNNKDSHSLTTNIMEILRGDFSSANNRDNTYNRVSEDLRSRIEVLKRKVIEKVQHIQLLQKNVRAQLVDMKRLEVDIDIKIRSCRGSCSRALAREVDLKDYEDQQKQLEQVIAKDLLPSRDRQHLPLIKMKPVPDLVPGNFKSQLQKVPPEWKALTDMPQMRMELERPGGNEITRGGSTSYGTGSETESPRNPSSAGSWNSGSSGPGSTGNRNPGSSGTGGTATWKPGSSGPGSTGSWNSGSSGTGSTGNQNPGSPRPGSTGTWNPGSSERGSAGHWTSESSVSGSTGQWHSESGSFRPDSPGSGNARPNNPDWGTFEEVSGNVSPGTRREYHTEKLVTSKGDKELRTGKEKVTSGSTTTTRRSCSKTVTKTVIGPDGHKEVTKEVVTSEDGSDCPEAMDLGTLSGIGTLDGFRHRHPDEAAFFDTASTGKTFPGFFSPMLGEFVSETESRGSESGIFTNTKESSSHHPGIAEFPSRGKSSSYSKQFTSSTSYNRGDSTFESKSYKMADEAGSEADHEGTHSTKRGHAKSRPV
T1 sequence (P02675 31-491): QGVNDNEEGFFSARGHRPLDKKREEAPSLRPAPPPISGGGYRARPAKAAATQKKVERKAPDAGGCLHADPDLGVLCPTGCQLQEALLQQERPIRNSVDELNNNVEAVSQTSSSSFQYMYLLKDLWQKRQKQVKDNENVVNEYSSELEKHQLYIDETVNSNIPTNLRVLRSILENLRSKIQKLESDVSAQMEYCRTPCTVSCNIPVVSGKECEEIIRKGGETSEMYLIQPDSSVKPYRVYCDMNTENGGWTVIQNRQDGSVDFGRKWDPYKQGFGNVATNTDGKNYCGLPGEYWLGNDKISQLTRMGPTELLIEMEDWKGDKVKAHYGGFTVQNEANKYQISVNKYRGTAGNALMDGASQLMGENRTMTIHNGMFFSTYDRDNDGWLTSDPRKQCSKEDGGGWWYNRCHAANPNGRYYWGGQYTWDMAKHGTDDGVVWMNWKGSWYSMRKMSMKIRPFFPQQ
T1 sequence (P02679 27-453): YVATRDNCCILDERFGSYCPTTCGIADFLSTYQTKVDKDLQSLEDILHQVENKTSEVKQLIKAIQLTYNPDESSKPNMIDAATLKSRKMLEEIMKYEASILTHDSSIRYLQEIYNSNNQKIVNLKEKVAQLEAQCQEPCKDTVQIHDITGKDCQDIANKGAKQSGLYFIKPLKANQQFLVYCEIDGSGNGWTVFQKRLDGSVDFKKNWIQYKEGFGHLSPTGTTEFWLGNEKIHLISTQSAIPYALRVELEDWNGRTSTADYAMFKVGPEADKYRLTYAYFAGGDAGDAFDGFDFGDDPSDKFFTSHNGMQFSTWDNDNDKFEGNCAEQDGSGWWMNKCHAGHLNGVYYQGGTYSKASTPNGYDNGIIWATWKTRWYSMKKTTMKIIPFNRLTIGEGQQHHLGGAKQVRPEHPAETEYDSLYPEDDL
Experimental: as §4, §1

citrate blood [4] = test: Prothrombin time (PT), Thromborel S test; type: biochemical, human; settings: Example 7, 0.25 IE heparin
Experimental: as §2, §3, §4, §1

Molecule | side effects of intravenous application (infected injuries) | International normalized ratio (INR) (citrate blood [1]; individual subjects 1-11) | International normalized ratio (INR), mean value (citrate blood [1]; mean of 11 subjects) | activated partial thromboplastin time (citrate blood [2]; Example 5, citrate blood plus 0.25 IE heparin, increased from 36) [s] | Activated partial thromboplastin time (aPTT) (citrate blood [2]; Example 7, 0.25 IE heparin, individual subjects 1-11) | Activated partial thromboplastin time (aPTT), mean value (citrate blood [2]; Example 7, 0.25 IE heparin, mean of 11 subjects) [s] | Antithrombin III (Antithrombin III; individual subjects 1-11) | Antithrombin III, mean value (Antithrombin III; mean of 11 subjects) [%] | D-Dimer (D-Dimer; individual subjects 1-11) | D-Dimer, mean value (D-Dimer; mean of 11 subjects) [µg/L] | Thrombin time (TT) (citrate blood [3]; individual subjects) [s] | Thrombin time (TT), mean value (citrate blood [3]; mean of 11 subjects) [s] | Fibrinogen (Fibrinogen; individual subjects 1-11) | Fibrinogen, mean value (Fibrinogen; mean of 11 subjects) [mg/dL] | Prothrombin time (PT) (citrate blood [4]; individual subjects 1-11) | Prothrombin time (PT), mean value (citrate blood [4]; mean of 11 subjects) [%]
Cc1ccc(S(=O)(=O)[N-]Cl)cc1.[Na+] [chloramine T] | severe side effects such as pericardial and lung edema | – | – | – | – | – | – | – | – | – | – | – | – | – | – | –
heparin [reference compound] | – | 1.2 (6×) and 1.3 (2×) and 1.1 (2×) and 1.4 | 1.2 | 56 | 283 s and 187 s and 135 s and 177 s and 375 s and 300 s and 400 s and 216 s and 284 s and 195 s and 169 s | 247.4 | 93% and 79% and 99% and 83% (2×) and 81% (2×) and 88% and 113% and 75% and 94% | 88.1 | 217 µg/L and 199 µg/L and 353 µg/L and 146 µg/L and 76 µg/L and 183 µg/L and 285 µg/L and 159 µg/L and 150 µg/L and 203 µg/L and 157 µg/L | 193.5 | 400 | 400.0 | 214 mg/dL and 155 mg/dL and 313 mg/dL and 153 mg/dL and 234 mg/dL and 236 mg/dL and 379 mg/dL and 309 mg/dL and 259 mg/dL and 283 mg/dL and 249 mg/dL | 253.1 | 66% and 58% and 89% (2×) and 62% and 74% and 54% and 69% and 78% and 68% and 72% | 70.8
